Laboratory results reported in patent publication US10894811B2, “Peptide inhibitors of calcium channels” (The University of North Carolina at Chapel Hill, priority 2016, dated 2021).
“Also recorded” adds a separate entry of the source.

How the values were obtained:
[1] = test system: hASMCs; assay: Calcium imaging using fura-2 (thapsigargin-induced Ca2+ signaling); assay type: cell-based, human; conditions: for thapsigargin (TG)-induced Ca2+ flux (peak fura-2 ratio change): human ASMCs, co-incubated 1 h; for ability to suppress Ca2+ signaling, SPLUNC1 mutants/peptides: ASMCs pre-incubated with truncated SPLUNC1 peptides (FIG. 4H)
Protocol: Calcium imaging: Calcium imaging using fura-2 was adapted from a previous published protocol with minor modifications (Sheridan et al., J. Biol. Chem. 288:33509 (2013)). Briefly, hASMCs were loaded with 2 μM fura-2 AM (Invitrogen) and serosal media from HBEC cultures or recombinant SPLUNC1 at 37° C. for 1 h. Cultures were washed with a standard Ringer's solution (101 mM NaCl, 12 mM NaHCO3, 1.2 mM MgCl2, 1.2 mM CaCl2, […], 24 mM HEPES, 10 mM glucose, pH 7.4) or with Ca^2+-free Ringer's solution as indicated. Cultures were then placed in the Ringer's solution, and images were collected with a 40×1.4 NA oil objective on a Nikon Ti-S inverted microscope. Fura-2 fluorescence was acquired alternately at 340 and 380 nm (emission >450 nm) using LUDL filter wheels, obtained with an Orca FLASH 4.0 CMOS camera (Hammamatsu), and controlled with HCImageLive software. Cell bodies were identified as individual regions of interest (ROIs). Background subtraction was performed using a region without the cell. Signals were converted to relative changes (F/F0) where F0 was the ratio of the average fluorescent intensity (340/380) of ROIs at 0 time point. A total of 20 cells/coverslip were recorded. ΔF/F0 represents average peak fluorescent intensity changes of three independent experiments.

[2] = test system: house dust mite-exposed mouse; assay: House dust mite allergy model, bronchoalveolar lavage cell counts; assay type: in vivo; conditions: SPLUNC1−/− mice, HDM challenge, day 17
Protocol: Nasal instillation of α6 peptides to mice: SPLUNC1^(−/−) mice were exposed to 2 μg house dust mite extract in 40 μl of PBS intranasally on days 0 and day 7. After this time, they were again challenged intranasally with 20 μg HDM in 40 μl of PBS from day 14 to day 16. We Then 320 μM of the short α6 peptide was added intranasally once per day on day 15 and on day 16 and the animals sacrificed on day 17. Bronchoalveolar lavage total and differential cell counts were performed using a Kwik-Diff™ Stain Kit (Thermo Scientific). After sacrificing the animals, blood was obtained by cardiac puncture and plasma was taken by spinning down whole blood. Serum HDM-specific antibody levels were measured using an enzyme-linked immunosorbent assay (ELISA). Briefly, plates were coated overnight with 0.01% HDM in PBS and blocked with 1% BSA in PBS before the addition of serum samples that had been diluted 1:10 in blocking buffer and standards for 1 h. Plates were washed 6× with PBS containing 0.05% Tween-20 before incubation with biotinylated anti-mouse IgE (Pharmingen) at a concentration of 2 μg/ml for 1 h. Plates were washed an additional six times, streptavidin-HRP (R&D Systems) was added for 30 min and the amount of bound HDM-specific antibody was determined using TMB substrate (Thermo Scientific). To test whether α6 peptides were efficacious in vivo, a well-characterized murine allergy model was used, the house dust mite-exposed mouse (Wu T et al., Nature Communications, 2017). Since SPLUNC1^(−/−) mice have asthma-like symptoms including spontaneous inflammation and airway hyperreactivity (Wu T et al., Nature Communications, 2017; Thaikoottathil et al., Am. J. Respir. Cell Mol. Biol. 47:253 (2012)), SPLUNC1^(−/−) mice were exposed to 20 μg HDM intranasally on day 0 and […]. After this time, they were challenged with 20 μg HDM intranasally from day 14 to day 17. […] of the short α6 peptide was administered intranasally once per day on day 15 and on day 16 and sacrificed the animals were sacrificed on day 17. Bronchoalveolar lavage was performed and total and differential cell counts performed (FIG. 15).

[3] = test system: house dust mite-exposed mouse; assay: House dust mite allergy model, HDM-specific IgE by ELISA; assay type: in vivo; conditions: SPLUNC1−/− mice, HDM challenge; α6 peptide intranasally day 15 and day 16; serum on day 17
Protocol: Nasal instillation of α6 peptides to mice: SPLUNC1^(−/−) mice were exposed to 2 μg house dust mite extract in 40 μl of PBS intranasally on days 0 and day 7. After this time, they were again challenged intranasally with 20 μg HDM in 40 μl of PBS from day 14 to day 16. We Then 320 μM of the short α6 peptide was added intranasally once per day on day 15 and on day 16 and the animals sacrificed on day 17. Bronchoalveolar lavage total and differential cell counts were performed using a Kwik-Diff™ Stain Kit (Thermo Scientific). After sacrificing the animals, blood was obtained by cardiac puncture and plasma was taken by spinning down whole blood. Serum HDM-specific antibody levels were measured using an enzyme-linked immunosorbent assay (ELISA). Briefly, plates were coated overnight with 0.01% HDM in PBS and blocked with 1% BSA in PBS before the addition of serum samples that had been diluted 1:10 in blocking buffer and standards for 1 h. […] Plates were washed an additional six times, streptavidin-HRP (R&D Systems) was added for 30 min and the amount of bound HDM-specific antibody was determined using TMB substrate (Thermo Scientific). […] Using the same SPLUNC1^(−/−) mice/HDM challenge as described in FIG. 15, serum was obtained on day 17 and IgE measured by ELISA.

**Q.** For “DITLVHDIVNMLIHGLQFVIKV (listed as Homo sapiens) [SEQ ID NO:2, amino acids 235-256 of human SPLUNC1]”, which “thapsigargin (TG)-induced Ca2+ flux (peak fura-2 ratio change)” value [1] is on record?
**A.** Its value is “inhibited”.

**Q.** And the “thapsigargin (TG)-induced Ca2+ flux (peak fura-2 ratio change)” value ([1]; listed as SPLUNC1 derived peptide)?
**A.** The value was “inhibits thapsigargin-induced Ca^2+ release”.

**Q.** How did the “eosinophil influx (bronchoalveolar lavage)” value ([2]; peptide 320 μM / 320 μM intranasally once per day on day 15 and day 16) turn out when “DITLVHDIVNMLIHG (listed as Homo sapiens) [SEQ ID NO:3, amino acids 235-249 of human SPLUNC1]” was run?
**A.** Its value is “decreased”.

**Q.** And the “bronchoalveolar lavage total cell count” value ([2]; peptide 320 μM / 320 μM intranasally once per day on day 15 and day 16, listed as short α6 peptide)?
**A.** Its value is “significantly reduced”.

**Q.** What about the “bronchoalveolar lavage total cell count” value ([2]; peptide 320 μM / 320 μM intranasally once per day on day 15 and day 16, listed as α6 peptide) of the same molecule?
**A.** Its value is “reduce inflammatory cell counts”.

**Q.** What about the “neutrophil influx (bronchoalveolar lavage)” value ([2]; peptide 320 mM / 320 μM intranasally once per day on day 15 and day 16) of the same molecule?
**A.** The value was “decreased”.

**Q.** And the “plasma (serum) HDM-specific IgE levels” value [3]?
**A.** Its value is “significantly reduced; also recorded: reduce blood IgE levels”.

**Q.** For “S18: N-terminal S18 region of SPLUNC1, its ENaC regulatory domain; synthesized peptide (GGLPVPLDQTLPLNVNPA) [reference compound]”, which “ability to suppress Ca2+ signaling, SPLUNC1 mutants/peptides” value [1] is on record?
**A.** The value was “did not inhibit SOCE”.

B1: mouse SPLUNC1: mouse SPLUNC1 protein (protein)
chain: QLAGLPLPLGQGPPLPLNQGPPLPLNQGQLLPLAQGLPLAVSPALPSNPTDLLAGKFTDALSGGLLSGGLLGILENIPLLDVIKSGGGNSNGLVGGLLGKLTSSVPLLNNILDIKITDPQLLELGLVQSPDGHRLYVTIPLGLTLNVNMPVVGSLLQLAVKLNITAEVLAVKDNQGRIHLVLGDCTHSPGSLKISLLNGVTPVQSFLDNLTGILTKVLPELIQGKVCPLVNGILSGLDVTLVHNIAELLIHGLQFVIKV
**Q.** With B1 as the molecule, how does the “ability to suppress Ca2+ signaling, SPLUNC1 mutants/peptides” value [1] read?
**A.** The value was “Inhibition was not different”.
